Measured values from PubChem BioAssay (NCI).
“And” between values parts separate entries of the source, which are not always exact repeats. Equal entries are not always repeated.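 1) Cells in 96-well plates. 2) Compound, 48 h, 5 concentrations. 3) Linear interpolation between surrounding doses. 4) Unreached endpoint = highest concentration. TGI marks complete inhibition of growth.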

How the values were obtained:
Test in all cases: NCI tumour cell line growth inhibition, 48 h
A498 renal = system: A498 renal
DU-145 prostate = system: DU-145 prostate
HOP-62 NSCLC = system: HOP-62 NSCLC
HT29 colon = system: HT29 colon
KM12 colon = system: KM12 colon
MCF7 breast = system: MCF7 breast
MDA-MB-435 = system: MDA-MB-435
SN12C renal = system: SN12C renal
SW-620 colon = system: SW-620 colon
TK-10 renal = system: TK-10 renal
UACC-62 melanoma = system: UACC-62 melanoma

SMILES	TGI (A498 renal)	TGI (DU-145 prostate)	TGI (HOP-62 NSCLC)	TGI (HT29 colon)	TGI (KM12 colon)	TGI (MCF7 breast)	TGI (MDA-MB-435)	TGI (SN12C renal)	TGI (SW-620 colon)	TGI (TK-10 renal)	TGI (UACC-62 melanoma)
Cc1ccc(S(=O)c2cccs2)cc1 (stereo not drawn)	> 100 µM	> 100 µM	> 100 µM	> 100 µM	> 100 µM	> 100 µM	> 100 µM	> 100 µM	> 100 µM	> 100 µM	–
N#CC(NNC(=O)Cc1ccccc1)c1cccc(O)c1 (stereo not drawn)	–	–	> 100 µM	> 100 µM	> 100 µM	–	–	> 100 µM	> 100 µM	> 100 µM	> 100 µM
O=c1[nH]nc(Cc2ccccc2)n1/N=C/c1cccs1	63 µM	> 100 µM	> 100 µM	> 100 µM	> 100 µM	> 100 µM	> 100 µM	> 100 µM	> 100 µM	–	> 100 µM
CN(C)CCNc1ccc2ncn3c4ccccc4c(=O)c1c23	21.1 µM	–	19.4 µM	10.6 µM	13.3 µM	–	–	38.4 µM	12.9 µM	46.7 µM	12.3 µM
CCC(NC(C)c1ccccc1)C(=O)c1ccc(OCc2ccccc2)c(OCc2ccccc2)c1 (stereo not drawn)	–	> 100 µM	> 100 µM	> 100 µM	> 100 µM	> 100 µM	> 100 µM	> 100 µM	> 100 µM	> 100 µM	> 100 µM
COc1cc2ccc3c4ccccc4cnc3c2cc1OC	–	–	> 100 µM	> 100 µM	> 100 µM	–	–	> 100 µM	> 100 µM	> 100 µM	> 100 µM
Cc1c(O)c(=O)ccn1CCN	> 100 µM	–	–	> 100 µM	> 100 µM	–	–	> 100 µM	> 100 µM	> 100 µM	> 100 µM
CC1=C(c2nc3ccccc3s2)C(=O)OC1(C)C	–	–	> 100 µM	> 100 µM	> 100 µM	–	–	> 100 µM	> 100 µM	–	> 100 µM
C=C1CC(C)(COc2ccc3c(C)c(Cl)c(=O)oc3c2)OC1=O (stereo not drawn)	–	6.8 µM	34.5 µM	3.48 µM	14.5 µM	3.15 µM	11.7 µM	18.9 µM	3.15 µM	3.06 µM	3.01 µM
CSc1nc(=S)[nH]c2c1c(C)nn2-c1ccccc1	80.6 µM	40.6 µM	> 100 µM	> 100 µM	–	46.1 µM	> 100 µM	52.7 µM	> 100 µM	> 100 µM	35.3 µM
CC1=CC(=O)CC2(C)CCC(C(C)CC(=O)CC(C)C)CC12OO (stereo not drawn)	31.5 µM and 49.4 µM	32.3 µM and 29.5 µM	–	43.2 µM and 31.1 µM	33.2 µM and 29.4 µM	31.9 µM and 31.7 µM	31.3 µM and 34.2 µM	38 µM and 33.8 µM	31.9 µM and 35.7 µM	32.8 µM and 34.1 µM	31.9 µM and 35.2 µM
COC(=O)C1CC2C=CC=CC(=O)C2(C)C1 (stereo not drawn)	> 100 µM	–	> 100 µM	> 100 µM	> 100 µM	–	–	> 100 µM	90.1 µM	> 100 µM	> 100 µM
